Test results published in PubChem BioAssay (NCI).
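Following 48 hours of exposure in 96-well plates, responses at five concentrations were used to interpolate endpoints linearly. GI50: concentration for 50% inhibition of growth. TGI: total growth inhibition.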

Experiments:
Assay in all cases: NCI anticancer screen, dose series, 48 h
HCT-15 colon = tested on: HCT-15 colon
OVCAR-8 ovarian = tested on: OVCAR-8 ovarian
HL-60(TB) leukemia = tested on: HL-60(TB) leukemia
NCI-H522 lung = tested on: NCI-H522 lung
SW-620 colon = tested on: SW-620 colon
OVCAR-5 ovarian = tested on: OVCAR-5 ovarian
COLO 205 colon = tested on: COLO 205 colon
HS 578T breast = tested on: HS 578T breast
NCI-H226 lung = tested on: NCI-H226 lung
SNB-19 CNS = tested on: SNB-19 CNS

O=C(O[C@H]1CN[C@H](C#Cc2cc3ncnc(Nc4ccc(Cc5ccccc5)cc4)c3s2)C1)N1CCOCC1 gave a GI50 (HCT-15 colon) of 7.08 µM, a TGI (HCT-15 colon) greater than 25 µM and a GI50 (OVCAR-8 ovarian) of 5.33 µM. For the same molecule, the TGI (OVCAR-8 ovarian) was greater than 23.4 µM, the GI50 (HL-60(TB) leukemia) was 5.5 µM and the TGI (HL-60(TB) leukemia) was 17.1 µM. It also gave a GI50 (NCI-H522 lung) of 0.482 µM, a TGI (NCI-H522 lung) of 4.2 µM and a GI50 (SW-620 colon) of 5.93 µM. For the same molecule, the TGI (SW-620 colon) was 17.7 µM, the GI50 (OVCAR-5 ovarian) was 9 µM and the TGI (OVCAR-5 ovarian) was greater than 25 µM. For the same molecule, the GI50 (COLO 205 colon) was 5.37 µM, the TGI (COLO 205 colon) was 13.1 µM and the GI50 (HS 578T breast) was 3.06 µM. The TGI (HS 578T breast) was greater than 21.7 µM, the GI50 (NCI-H226 lung) was 5.01 µM and the TGI (NCI-H226 lung) was 15.7 µM. It also gave a GI50 (SNB-19 CNS) of 7.73 µM and a TGI (SNB-19 CNS) greater than 25 µM.
With NC(=O)c1cccc(N)c1 the GI50 (HCT-15 colon) was greater than 100 µM, the TGI (HCT-15 colon) was greater than 100 µM and the GI50 (OVCAR-8 ovarian) was greater than 100 µM. It also gave a TGI (OVCAR-8 ovarian) greater than 100 µM, a GI50 (HL-60(TB) leukemia) greater than 100 µM and a TGI (HL-60(TB) leukemia) greater than 100 µM. For the same molecule, the GI50 (NCI-H522 lung) was greater than 100 µM, the TGI (NCI-H522 lung) was greater than 100 µM and the GI50 (SW-620 colon) was greater than 100 µM. The TGI (SW-620 colon) was greater than 100 µM, the GI50 (OVCAR-5 ovarian) was greater than 100 µM and the TGI (OVCAR-5 ovarian) was greater than 100 µM. It also gave a GI50 (COLO 205 colon) greater than 100 µM, a TGI (COLO 205 colon) greater than 100 µM and a GI50 (HS 578T breast) greater than 100 µM. The TGI (HS 578T breast) was greater than 100 µM, the GI50 (NCI-H226 lung) was greater than 100 µM and the TGI (NCI-H226 lung) was greater than 100 µM. The GI50 (SNB-19 CNS) was greater than 100 µM and the TGI (SNB-19 CNS) was greater than 100 µM.
Molecule COC(=O)c1c2c(c[n+]([O-])c1C)C(=O)C(NCc1ccccc1)=CC2=O has a GI50 (HCT-15 colon) of 0.354 µM, a TGI (HCT-15 colon) of 1.53 µM and a GI50 (OVCAR-8 ovarian) of 0.311 µM. The TGI (OVCAR-8 ovarian) was 1.16 µM, the GI50 (HL-60(TB) leukemia) was 0.256 µM and the TGI (HL-60(TB) leukemia) was 0.667 µM. For the same molecule, the GI50 (NCI-H522 lung) was 0.31 µM, the TGI (NCI-H522 lung) was 1.57 µM and the GI50 (SW-620 colon) was 0.319 µM. It also gave a TGI (SW-620 colon) of 1.29 µM, a GI50 (OVCAR-5 ovarian) of 1.2 µM and a TGI (OVCAR-5 ovarian) of 2.57 µM. For the same molecule, the GI50 (COLO 205 colon) was 0.312 µM, the TGI (COLO 205 colon) was 0.984 µM and the GI50 (HS 578T breast) was 2.4 µM. The TGI (HS 578T breast) was 8.13 µM, the GI50 (NCI-H226 lung) was 1.23 µM and the TGI (NCI-H226 lung) was 2.84 µM. It also gave a GI50 (SNB-19 CNS) of 1.46 µM and a TGI (SNB-19 CNS) of 2.77 µM.
Molecule O=C1OCC2=C1C(c1ccccc1)c1cc3c(cc1N2CCO)CCC3 (centres undefined) has a GI50 (HCT-15 colon) of 0.103 µM, a TGI (HCT-15 colon) greater than 25 µM and a GI50 (OVCAR-8 ovarian) of 0.144 µM. For the same molecule, the TGI (OVCAR-8 ovarian) was greater than 25 µM, the GI50 (HL-60(TB) leukemia) was 0.0871 µM and the TGI (HL-60(TB) leukemia) was 1.94 µM. For the same molecule, the GI50 (NCI-H522 lung) was 0.0284 µM, the TGI (NCI-H522 lung) was 0.119 µM and the GI50 (SW-620 colon) was 0.0879 µM. For the same molecule, the TGI (SW-620 colon) was greater than 25 µM, the GI50 (OVCAR-5 ovarian) was 0.203 µM and the TGI (OVCAR-5 ovarian) was greater than 25 µM. For the same molecule, the GI50 (COLO 205 colon) was 0.0854 µM, the TGI (COLO 205 colon) was 0.331 µM and the GI50 (HS 578T breast) was 0.0739 µM. For the same molecule, the GI50 (NCI-H226 lung) was 1.02 µM, the TGI (NCI-H226 lung) was greater than 25 µM and the GI50 (SNB-19 CNS) was 0.119 µM. It also gave a TGI (SNB-19 CNS) greater than 12.9 µM.
For COc1cccc(C2=NN(C(C)=O)C(c3cc(OC)c(OC)c(OC)c3)C2)c1 (centres undefined), the GI50 (HCT-15 colon) was 1.42 µM, the TGI (HCT-15 colon) was greater than 100 µM and the GI50 (OVCAR-8 ovarian) was 5.1 µM. It also gave a TGI (OVCAR-8 ovarian) greater than 100 µM, a GI50 (HL-60(TB) leukemia) of 1.55 µM and a TGI (HL-60(TB) leukemia) of 6.51 µM. For the same molecule, the GI50 (NCI-H522 lung) was 3.97 µM, the TGI (NCI-H522 lung) was greater than 66.3 µM and the GI50 (SW-620 colon) was 0.668 µM. It also gave a TGI (SW-620 colon) greater than 100 µM, a GI50 (OVCAR-5 ovarian) of 8.09 µM and a TGI (OVCAR-5 ovarian) greater than 100 µM. It also gave a GI50 (COLO 205 colon) of 3.35 µM, a TGI (COLO 205 colon) of 12.3 µM and a GI50 (HS 578T breast) of 1.36 µM. For the same molecule, the TGI (HS 578T breast) was 5.11 µM, the GI50 (NCI-H226 lung) was greater than 100 µM and the TGI (NCI-H226 lung) was greater than 100 µM. For the same molecule, the GI50 (SNB-19 CNS) was 3.18 µM and the TGI (SNB-19 CNS) was greater than 100 µM.
Work on O=C(/C=C/c1ccccc1O)c1ccccc1 yielded a GI50 (HCT-15 colon) of 10.6 µM, a TGI (HCT-15 colon) of 24.7 µM and a GI50 (OVCAR-8 ovarian) of 4.39 µM. The TGI (OVCAR-8 ovarian) was 17.7 µM, the GI50 (HL-60(TB) leukemia) was 1.52 µM and the TGI (HL-60(TB) leukemia) was 11.1 µM. The GI50 (NCI-H522 lung) was 9.1 µM, the TGI (NCI-H522 lung) was 22 µM and the GI50 (SW-620 colon) was 1.8 µM. It also gave a TGI (SW-620 colon) of 3.72 µM, a GI50 (OVCAR-5 ovarian) of 15.3 µM and a TGI (OVCAR-5 ovarian) of 31.1 µM. The GI50 (COLO 205 colon) was 17.3 µM, the TGI (COLO 205 colon) was 38 µM and the GI50 (HS 578T breast) was 5.67 µM. It also gave a TGI (HS 578T breast) of 30.4 µM, a GI50 (NCI-H226 lung) of 12.8 µM and a TGI (NCI-H226 lung) of 26.1 µM. It also gave a GI50 (SNB-19 CNS) of 12.6 µM and a TGI (SNB-19 CNS) of 25.3 µM.
In the case of O=[N+]([O-])c1ccccc1S(=O)(=O)c1ccccc1[N+](=O)[O-], the TGI (HCT-15 colon) is reported as greater than 100 µM, the TGI (OVCAR-8 ovarian) is reported as greater than 56.2 µM and the TGI (HL-60(TB) leukemia) is reported as greater than 100 µM. The TGI (NCI-H522 lung) was greater than 100 µM, the TGI (SW-620 colon) was greater than 56.2 µM and the TGI (OVCAR-5 ovarian) was greater than 100 µM. It also gave a TGI (COLO 205 colon) greater than 100 µM, a TGI (HS 578T breast) greater than 100 µM and a TGI (NCI-H226 lung) greater than 100 µM. For the same molecule, the TGI (SNB-19 CNS) was greater than 97.7 µM.
Molecule O=C(/C=C/c1ccccc1Cl)c1ccc(O)cc1 has a GI50 (HCT-15 colon) of 2.48 µM, a TGI (HCT-15 colon) of 11.1 µM and a GI50 (OVCAR-8 ovarian) of 8.3 µM. For the same molecule, the TGI (OVCAR-8 ovarian) was 26.3 µM, the GI50 (HL-60(TB) leukemia) was 3.22 µM and the TGI (HL-60(TB) leukemia) was greater than 23.2 µM. For the same molecule, the GI50 (NCI-H522 lung) was 9.33 µM, the TGI (NCI-H522 lung) was 23.9 µM and the GI50 (SW-620 colon) was 2.89 µM. For the same molecule, the TGI (SW-620 colon) was 7.88 µM, the GI50 (OVCAR-5 ovarian) was 19.8 µM and the TGI (OVCAR-5 ovarian) was 37.4 µM. It also gave a GI50 (COLO 205 colon) of 12.8 µM, a TGI (COLO 205 colon) of 34.8 µM and a GI50 (HS 578T breast) of 2.33 µM. The TGI (HS 578T breast) was 7.19 µM, the GI50 (NCI-H226 lung) was 15.2 µM and the TGI (NCI-H226 lung) was 42.8 µM. For the same molecule, the GI50 (SNB-19 CNS) was 6.95 µM and the TGI (SNB-19 CNS) was 19.6 µM.
Molecule Clc1ccc(-c2nc(-c3c[nH]c4ncccc34)cs2)cc1 has a GI50 (HCT-15 colon) greater than 100 µM, a TGI (HCT-15 colon) greater than 100 µM and a GI50 (OVCAR-8 ovarian) greater than 100 µM. The TGI (OVCAR-8 ovarian) was greater than 100 µM, the GI50 (HL-60(TB) leukemia) was greater than 100 µM and the TGI (HL-60(TB) leukemia) was greater than 100 µM. The GI50 (NCI-H522 lung) was greater than 100 µM, the TGI (NCI-H522 lung) was greater than 100 µM and the GI50 (SW-620 colon) was 36.3 µM. The TGI (SW-620 colon) was greater than 100 µM, the GI50 (OVCAR-5 ovarian) was greater than 100 µM and the TGI (OVCAR-5 ovarian) was greater than 100 µM. For the same molecule, the GI50 (COLO 205 colon) was greater than 100 µM, the TGI (COLO 205 colon) was greater than 100 µM and the GI50 (HS 578T breast) was greater than 100 µM. It also gave a TGI (HS 578T breast) greater than 100 µM, a GI50 (NCI-H226 lung) greater than 100 µM and a TGI (NCI-H226 lung) greater than 100 µM. It also gave a GI50 (SNB-19 CNS) greater than 100 µM and a TGI (SNB-19 CNS) greater than 100 µM.
In the case of CC(/C=C/C=C/C=C/C=C/C=C/C(O)=C1/C(=O)C(CCC(=O)O)N(C)C1=O)=C\C(C)C(OC1CC(O)C(O)C(C)O1)C(C)C (centres undefined), the TGI (HCT-15 colon) is reported as 19.4 µM, the TGI (OVCAR-8 ovarian) is reported as 15.1 µM and the TGI (HL-60(TB) leukemia) is reported as 6.07 µM. It also gave a TGI (NCI-H522 lung) of 7.35 µM, a TGI (SW-620 colon) of 14.6 µM and a TGI (OVCAR-5 ovarian) of 7.83 µM. For the same molecule, the TGI (COLO 205 colon) was 4.48 µM, the TGI (HS 578T breast) was 32.3 µM and the TGI (NCI-H226 lung) was 11.8 µM. The TGI (SNB-19 CNS) was 9.44 µM.
Work on NC(Cc1cc(Br)c(O)c(Br)c1)C(=O)O (centres undefined) yielded a TGI (HCT-15 colon) greater than 100 µM, a TGI (OVCAR-8 ovarian) greater than 100 µM and a TGI (HL-60(TB) leukemia) greater than 100 µM. For the same molecule, the TGI (NCI-H522 lung) was greater than 100 µM, the TGI (SW-620 colon) was greater than 100 µM and the TGI (OVCAR-5 ovarian) was greater than 100 µM. The TGI (COLO 205 colon) was greater than 100 µM, the TGI (HS 578T breast) was greater than 100 µM and the TGI (NCI-H226 lung) was greater than 100 µM. The TGI (SNB-19 CNS) was greater than 100 µM.
